Assays:
Type in all cases: biochemical
[1] = tested on: transferase derived from the Sulfolobus solfataricus strain KM1; test: Influence of activators and inhibitors on glucosyltrehalose-producing activity
[2] = tested on: transferase derived from the Acidianus brierleyi strain DSM 1651; test: Inhibitor of transferase (glucosyltrehalose-producing activity); conditions: 5 mM CuSO4
Description: (§1) The influence of each substance listed in Table 8, such as an activating effect or inhibitory effect, was evaluated using similar activity-measuring method to that in Example I-1. Specifically, the listed substances were individually added together with the substrate to the same reaction system as that in the method for measuring glucosyltrehalose-producing activity employed in Example I-1.
(§2) Incidentally, each of the purified enzymes which were obtained in Examples I-3-I-5 and derived from the Sulfolobus solfataricus strain DSM 5833, the Sulfolobus acidocaldarius strain ATCC 33909, and the Acidianus brierleyi strain DSM 1651, respectively, was examined for enzymatic characteristics by using similar manner.

[3] = tested on: transferase derived from the Sulfolobus acidocaldarius strain ATCC 33909; test: as above; conditions: 5 mM CuSO4
Description: as §1, §2

[4] = tested on: transferase derived from the Sulfolobus solfataricus strain DSM 5833; test: as above; conditions: 5 mM CuSO4
Description: as §1, §2

[5] = molecular target: T1, amylase derived from the Sulfolobus solfataricus strain KM1 (Saccharolobus solfataricus, UniProt Q55088); test: biochemical
T1 construct: endogenous in cells; host or cells: Sulfolobus solfataricus strain KM1 cells
T1 sequence (Q55088 1-559): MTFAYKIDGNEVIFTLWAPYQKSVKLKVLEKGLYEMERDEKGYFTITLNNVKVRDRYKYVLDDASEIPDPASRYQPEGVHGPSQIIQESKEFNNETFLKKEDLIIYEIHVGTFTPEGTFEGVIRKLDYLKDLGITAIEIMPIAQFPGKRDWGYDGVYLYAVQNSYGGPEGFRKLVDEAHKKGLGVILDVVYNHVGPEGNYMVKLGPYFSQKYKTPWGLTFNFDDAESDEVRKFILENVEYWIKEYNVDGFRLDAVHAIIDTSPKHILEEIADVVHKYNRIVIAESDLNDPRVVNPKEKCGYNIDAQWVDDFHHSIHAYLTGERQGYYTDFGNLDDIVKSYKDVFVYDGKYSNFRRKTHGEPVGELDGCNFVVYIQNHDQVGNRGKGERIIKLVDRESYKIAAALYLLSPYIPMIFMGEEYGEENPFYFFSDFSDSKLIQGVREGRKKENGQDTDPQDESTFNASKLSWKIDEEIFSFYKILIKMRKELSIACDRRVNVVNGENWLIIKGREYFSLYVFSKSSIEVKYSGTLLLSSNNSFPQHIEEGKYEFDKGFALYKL

[6] = tested on: amylase derived from the Sulfolobus acidocaldarius strain ATCC 33909; test: Inhibitor of amylase (maltotriosyltrehalose-hydrolyzing activity); conditions: 5 mM CuSO4
Description: (§3) The influence of each substance listed in Table 15, such as an activating effect or inhibitory effect, was evaluated using similar activity-measuring method to that in Example II-1. Specifically, the listed substances were individually added together with the substrate to the same reaction system as that in the method for measuring maltotriosyltrehalose-hydrolyzing activity employed in Example II-1. […] As to the inhibitory effect by SDS, however, the enzymatic activity revived after SDS was removed by dialysis, ultrafiltration or the like.
(§4) Additionally, each of the purified enzymes obtained in Examples II-3 and II-4, i.e. derived from the Sulfolobus solfataricus strain DSM 5833 and the Sulfolobus acidocaldarius strain ATCC 33909, respectively, was also examined for the enzymatic characteristics in a similar manner.

[7] = tested on: amylase derived from the Sulfolobus solfataricus strain DSM 5833; test: as above; conditions: 5 mM CuSO4
Description: as §3, §4

[8] = tested on: debranching enzyme derived from the Sulfolobus solfataricus strain KM1; test: Influence of activators and inhibitors on debranching enzyme activity

For `O=S(=O)([O-])[O-].[Cu+2]` [CuSO4], the “Inhibitor, inhibited” value ([1]; 5 mM CuSO4) was 100% inhibited, the Residual activity ([1]; Concentration 5 mM) was 0.0% and the “Activating or inhibitory effect” value ([1]; added with the substrate) was “inhibitory effects”. The “Inhibitor, inhibited” value [2] was 100% inhibited, the “Inhibitor, inhibited” value [3] was 100% inhibited and the “Inhibitor, inhibited” value [4] was 100% inhibited. For the same compound, the “Inhibitor, inhibited” value ([5]; 5 mM CuSO4) was 100% inhibited, the Residual activity ([5]; Concentration 5 mM) was 0% and the “Activating or inhibitory effect” value ([5]; added with the substrate) was “inhibitory effects”. The “Inhibitor, inhibited” value [6] was 100% inhibited, the “Inhibitor, inhibited” value [7] was 100% inhibited and the Residual activity ([8]; Concentration 5 mM) was 0.0%. The “Activating or inhibitory effect” value ([8]; added with the substrate) was “inhibitory effects”.
